Measurements reported in publication PMC4309423, “Total synthesis of periploside A, a unique pregnane hexasaccharide with potent immunosuppressive effects” (Nature Communications, 2015).

Key:
[1] = Cytotoxicity assay (MTT) on fresh spleen cells; format: cell-based, mice; settings: BALB/C, fresh spleen cells (T-lymphocytes); T-lymphocyte (mouse spleen cells), 48 h, MTT
Experimental: (§1) Supplementary Figure 62. Inhibition of the growth of T-lymphocytes by synthetic compounds 1, 31, and 41-43. […]
(§2) Bioassay for the immunosuppressive activities17
(§3) Preparation of spleen cells from mice
(§4) BALB/C mice were sacrificed and spleens were removed aseptically. A single cell suspension was prepared after cell debris and clumps were removed. Erythrocytes were lysed using ammonium chloride buffer solution. The isolated lymphocytes were washed 3 times with PBS containing 2% FBS, and were re-suspended in RPMI 1640 medium at the indicated concentration.
(§5) Fresh spleen cells ([…]) were cultured in 96-well flat plates with 200 µL of RPMI 1640 media containing 10% FBS, 100 U/mL penicillin and 100 µg/mL streptomycin in a humidified, 37 °C, 5% CO2-containing incubator for 48 h, in the presence or absence of various concentrations of the compounds. 18 µL of MTT (5 mg/mL) was added to each well at the final 5 h culture. Then 90 µ L of lysis buffer (10% SDS, 50% DMF, pH 7.2) was added to each well for 6–7 h and the absorbance values at 570 nm were read by microplate reader (Bio-Rad, Model 550). […]

[2] = system: T-lymphocyte (spleen cells from BALB/C mice); experiment: Cytotoxicity assay (MTT) on fresh spleen cells; format: cell-based; settings: synthetic vs natural periploside A
Experimental: as §1, §2, §3, §4, §5

[3] = system: ConA-induced T-lymphocyte proliferation (spleen cells from BALB/C mice); experiment: T cell function assay: ConA-induced T-lymphocyte proliferation ([3H]-thymidine uptake); format: cell-based; settings: for IC50: Mus musculus, ConA (5 μg/mL)-induced T-lymphocyte proliferation, 48 h, [3H]-thymidine uptake
Experimental: Supplementary Figure 63. Inhibition of concanavalin A (ConA)-induced
T-lymphocyte proliferation by synthetic compounds 1, 31, and 41-43.
as §2, §3
as §4, with “concentration. […]” for “concentration.”
1 x 10^6 of fresh spleen cells were cultured for 48 h at the same conditions as mentioned above. The cultures were stimulated with 5 µg/mL of concanavalin A (ConA) to induce T cells proliferative responses. The compounds were added to cultures with indicated concentrations to test their bioactivities. Proliferation was assessed in terms of uptake of [3H]-thymidine during last 8 h culture pulsing with 25 µCi of [3H]-thymidine for each well, and then cells were harvested onto glass fiber filters by a Basic 96 harvester. The incorporated radioactivity was counted by a liquid scintillation counter (1540 MicroBeta Trilux, Perkin–Elmer Life Sciences).

[4] = system: ConA-induced T cell proliferation; set-up: method as in PMID 18835000, PMID 21843896; settings: natural product, cited from earlier work
T cell = system: T cell; set-up: method as in PMID 18835000, PMID 21843896; settings: toxicity; natural product; cited from earlier work
mice models = system: mice models; set-up: method as in PMID 16204471, PMID 16751252; settings: cited from earlier work

COC1CC(OC2C(C)OC3(CC2OC)OCOC2CC(OC(C)C4(O)CCC5C6CC=C7CC(O)CCC7(C)C6CCC54C)OC(C)C2O3)OC(C)C1OC1CC(OC)C(OC2CC(OC)C(OC3OC(C)C(O)C(OC)C3OC(C)=O)C(C)O2)C(C)O1 (stereo not shown) [Periploside A (1), Periploside A]
CC50 at 48 h [1]: 2100 ± 320 nM | toxicity against T-lymphocyte compared with the natural product [2]: similar | IC50 [3]: 170 ± 40 nM | activity against ConA-induced T-lymphocyte proliferation compared with the natural product ([3]; synthetic vs natural periploside A): similar | IC50 ([4]; ConA-induced T cell proliferation): 640 nM | inhibition of ConA-induced T cell proliferation compared with reference drugs [4]: as potently as rapamycin and cyclosporin A | CC50 (T cell): 10100 nM | immunosuppressive effects in mice models (mice models): significant

CO[C@@H]1C[C@]2(OCO[C@@H]3C[C@H](O[C@@H](C)[C@@]4(O)CCC5C6CC=C7C[C@@H](O)CC[C@]7(C)C6CC[C@@]54C)O[C@H](C)[C@H]3O2)O[C@H](C)[C@H]1O (stereo partly shown) [Disaccharide 42]
CC50 at 48 h [1]: 12800 ± 520 nM | IC50 [3]: 6200 ± 3200 nM

CO[C@@H]1C[C@]2(OCO[C@@H]3C[C@@H](O[C@@H](C)[C@@]4(O)CCC5C6CC=C7C[C@@H](O)CC[C@]7(C)C6CC[C@@]54C)O[C@H](C)[C@H]3O2)O[C@H](C)[C@H]1O (stereo partly shown) [Disaccharide 43]
CC50 at 48 h [1]: 27700 ± 6610 nM | IC50 [3]: 3700 ± 2250 nM

CO[C@H]1[C@@H](O)[C@@H](C)O[C@@H](O[C@H]2[C@@H](OC)C[C@H](O[C@H]3[C@@H](OC)C[C@H](O[C@H]4[C@@H](OC)C[C@H](O[C@@H]5[C@@H](C)O[C@]6(C[C@H]5OC)OCO[C@@H]5C[C@H](O[C@@H](C)[C@@]7(O)CCC8C9CC=C%10C[C@@H](O)CC[C@]%10(C)C9CC[C@@]87C)O[C@H](C)[C@H]5O6)O[C@@H]4C)O[C@@H]3C)O[C@@H]2C)[C@@H]1OC(C)=O (stereo partly drawn) [C1′′-epi-periploside A (31), C1′′-epi-periploside A]
CC50 at 48 h [1]: 1580 ± 190 nM | IC50 [3]: 410 ± 150 nM

CO[C@H]1[C@@H](O)[C@@H](C)O[C@@H](O[C@H]2[C@@H](OC)C[C@H](O[C@H]3[C@@H](OC)C[C@H](O[C@H]4[C@@H](OC)C[C@@H](O[C@@H]5[C@@H](C)O[C@@]6(C[C@H]5OC)OCO[C@@H]5C[C@H](O[C@@H](C)[C@@]7(O)CCC8C9CC=C%10C[C@@H](O)CC[C@]%10(C)C9CC[C@@]87C)O[C@H](C)[C@H]5O6)O[C@@H]4C)O[C@@H]3C)O[C@@H]2C)[C@@H]1OC(C)=O (stereo partly drawn) [C1′′′-epi-periploside A (41), C1′′′-epi-periploside A]
CC50 at 48 h [1]: 11400 ± 3660 nM | IC50 [3]: 1960 ± 430 nM
